According to patent US6509163B1, “Methods of screening modulators of mammalian P2X7 purinergic receptors” (Glaxo Group Limited, priority 1997, dated 2003):

Legend:
P2X7ΔC receptor [1] = target: T1, P2X7ΔC receptor (Rattus norvegicus, UniProt Q64663); test: Whole-cell recordings in HEK293 cells transiently transfected with P2X7ΔC cDNA; format: cell-based; conditions: 30 μM BzATP, normal solution, holding potential −70 mV, transiently transfected HEK cells, n=18
T1 construct: the resulting protein (P2X7ΔC) was P2X7 (1-418); expressed in transfected cells; host or cells: HEK293 (transient)
T1 sequence (Q64663 1-418): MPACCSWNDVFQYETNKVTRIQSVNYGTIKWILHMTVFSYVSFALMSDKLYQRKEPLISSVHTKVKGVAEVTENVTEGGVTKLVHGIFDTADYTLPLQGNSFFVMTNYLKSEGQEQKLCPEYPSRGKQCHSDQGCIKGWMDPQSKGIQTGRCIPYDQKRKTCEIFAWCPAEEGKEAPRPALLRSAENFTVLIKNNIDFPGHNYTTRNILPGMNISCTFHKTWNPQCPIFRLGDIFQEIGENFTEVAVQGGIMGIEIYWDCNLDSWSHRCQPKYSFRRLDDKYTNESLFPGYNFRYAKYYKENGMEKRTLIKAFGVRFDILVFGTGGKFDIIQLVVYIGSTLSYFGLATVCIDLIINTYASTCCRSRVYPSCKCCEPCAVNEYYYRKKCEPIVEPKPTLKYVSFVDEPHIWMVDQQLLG
Text: A 440-base pair (bp) fragment of P2X7 was amplified with inosine-containing degenerate oligonucleotides from several peripheral autonomic ganglia (Buell et al, EMBO J. 15:55 (1996)). […] An additional 468 bp of 5′ cDNA was cloned by rapid amplification of cDNA ends-polymerase chain reaction (RACE-PCR; Life Technologies, Bethesda, MD) using poly(A)^+ RNA from the medial habenula. P2X7 receptor-specific sequences were amplified with two rounds of nested PCR, for which sense primers were […] and […] and antisense primers were […] and […]. A shared restriction site (Bgl II) permitted ligation of the RACE-PCR product and of the partial cDNA, yielding a construct that encoded the entire P2X7 protein. This chimera (GenBank accession number X95882) was expressed in pcDNA3 (Invitrogen, San Diego, Calif.), sequenced by fluorescent DNA sequencing (Perkin Elmer, Foster City, Calif.), and confirmed by isolation of other full-length P2X7 cDNAs from a rat brain cDNA library (Clontech, Palo Alto, Calif.). One of these included a stop codon 130 bp upstream from the ATG. The COOH-terminus was removed by excision of a Xcm I-Not I fragment, and the resulting protein (P2X7ΔC) was P2X7 (1-418). […]

P2X7ΔC receptor [2] = target: T1, P2X7ΔC receptor; test: YO-PRO-1 uptake in HEK cells expressing P2X7ΔC receptor; format: cell-based; conditions: low divalent solution, BzATP 300 μM
Description: YO-PRO-1 (10 μM; Molecular Probes, Eugene, Oreg.) was added to the superfusion fluid during electrophysiological recordings 3 to 6 min before switching to low divalent solution and washed out upon switching back to normal divalent solution, after which the fluorescent lamp was turned on and cells were examined with a fluorescein isothiocyanate filter. For cell counts, 500 cells per cover slip were counted in each case.

## Nc1ncnc2c1ncn2[C@@H]1O[C@H](COP(=O)(O)OP(=O)(O)OP(=O)(O)O)[C@@H](OC(=O)c2ccc(C(=O)c3ccccc3)cc2)[C@H]1O [BzATP, 3′-O-(4-benzoyl)benzoyl ATP]
P2X7ΔC receptor [1]
  Current amplitude (mean±SEM) to BzATP: 590±95 pA
P2X7ΔC receptor [2]
  uptake of YO-PRO-1 induced by BzATP: no uptake of YO-PRO-1 was induced
